# Key:
# RE strain HSV-1 = assay: HSV-1 recovery from tear film, cornea and trigeminal ganglia of treated rabbits; type: in vivo, NZW rabbit; details: Example 4
# Text: The specified number of NZW rabbits (1.5-2.0 kg) were used. Animals were received at least two days prior to inoculation to allow them to accommodate to the conditions in the vivarium facility. This conditioning of the animals prior to inoculation minimizes animal variability. After the accommodation, the animals received a slit-lamp examination to exclude any animals with pre-existing anterior segment ocular defects. Animals were bi-laterally inoculated by intrastromal injection of 10^5 PFU RE strain HSV-1. The animals were then replaced individually into cages.
# […] This was carried out by obtaining tear film by swabbing the lower and upper conjunctival sacs and retaining the swab in the nasal fornix for 10 seconds. The swabs were eluted individually in HBSS. 50 μl aliquots of the virus-HBSS eluate were absorbed under confluent HFF cell monolayers for 5 minutes. The monolayers were hydrated with MEM, incubated at 37° C. and observed daily for 1 to 2 weeks to detect developing cytopathology consistent with HSV infection (HSV CPE).
# (§1) On day 10 PI, the animals were sacrificed, the corneal epithelium was scraped from the eyes and epithelial and corneal stromal cultures were preformed on HFF cell monolayers. The separation of epithelial virus from deeper stromal virus infection allows for analysis of HSV in these distinct corneal layers. Corneal epithelial and stromal co-cultures were evaluated daily by inverted light microscopy.
# At sacrifice, trigeminal ganglia were removed, washed in HBSS, minced and floated over duplicate HFF cell monolayers. The cell co-cultures were monitored by inverted light microscopy for 2 weeks. Negative cultures were blind passaged twice at 7 day intervals. Detection of HSV CPE in the whole-cell co-cultures was scored either positive or negative. HSV recovery from inventive compound-treated, TFT-treated and placebo-treated trigeminal ganglia was compared and differences in recovery rates analyzed.
# as §1, with “7” for “10”, “performed” for “preformed”
# [1] = test system: human foreskin fibroblast (HFF) cell monolayers; assay: Toxicity effects controls: sham-inoculated compound-treated HFF monolayers; type: cell-based; for Toxicity effects: key: +: toxic; -: no toxicity; ±: mild toxicity; T: toxicity effects interfered with CPE rating
# Text: (§2) With sufficient stirring, all the compounds completely dissolved.
# In the tables, the symbols have the meaning indicated: […]
# HSV-1 McKrae Strain [2] = assay: Direct virucidal efficacy against HSV-1 on HFF monolayers; type: cell-based; details: for effective virucidal concentration IC50 / effective virucidal concentration IC90: HSV-1
# Description: (§3) HSV-1 McKrae Strain was diluted to a final concentration of 10^5 PFU/ml in minimal essential medium (MEM). Hereinafter, this dilution is referred to as the HSV-1 Suspension for convenience.
# as §2
# Each of the drug solutions were mixed with the HSV-1 Suspension in a 1:1 ratio. The drug and HSV-1 Suspension mixture was incubated at 37° C. for thirty minutes with agitation every ten minutes. After the incubation, fifty microliter aliquots were overlaid onto triplicate confluent human foreskin fibroblast (HFF) cell monolayers. The inoculum was absorbed for thirty minutes and then a medium containing the appropriate drug concentration in MEM was added to the monolayers to a final volume of 0.5 milliliters per culture-well. The monolayers were incubated at 37° C. The developing HSV-1 Cytopathology was monitored daily for two days by inverted light microscopy. Titers were calculated by multiple regression analysis. All data is presented as the average PFU/ml reduction at 24 and/or 48 hours after inoculation (PI).
# 1. HSV-1 inoculated, non-compound treated HFF monolayers were included as "positive controls"; and […]
# HSV-1 McKrae Strain [3] = assay: Intracellular antiviral activity against HSV-1 in HFF monolayers; type: cell-based; details: for antiviral efficacy (HSV-1 titer): Experiment 7 (Table 18), 24 h PI
# Description: as §3, §2
# HFF cell monolayers were inoculated with the HSV-Suspension prepared as above by absorption for thirty minutes at 37° C. After absorption of the virus, the inoculum was aspirated from the cell monolayers and the HSV-1 infected monolayers were rehydrated with medium containing the appropriate concentration of the solution of the compound by adding 500 microliters of each compound concentration to triplicate HSV-1 infected monolayers. All monolayers were incubated at 37° C. The developing HSV-1 cytopathology was monitored daily for two days by inverted light microscopy and titers were calculated by multiple […] analysis. For the intracellular anti-viral activity, "cell monolayer controls" were obtained using sham inoculated non-treated HFF cell monolayers along with the drug treated monolayers. "Positive controls" were obtained by using HSV-1 inoculated non-CTC compound treated HFF monolayers.
# HFF cells = assay: Cell proliferation assay; type: cell-based, human; details: rapidly growing cells
# Description: Twenty-four hours prior to assay, HFF cells are seeded in 6-well plates at a concentration of 2.5×10^4 cells per well in MEM containing 10% FBS. On the day of the assay, drugs are diluted serially in MEM containing 10% FBS at increments of 1:5 covering a range from 100 μg/ml to 0.03 μg/ml. […] The media from the wells is then aspirated and 2 ml of each drug concentration is then added to each well. The cells are then incubated in a Co2 incubator at 37° C. for 72 h. At the end of this time, the media-drug solution is removed and the cells washed. […] The cell-media mixture is then pipetted up and down vigorously to break up the cell suspension and 0.2 ml of the mixture is added to 9.8 ml of Isoton III and counted using a Coulter Counter. Each sample is counted three times with three replicate wells per sample.
compound,measurement,setting,value
CC([O-])=CC(C)=NCCN=C(C)C=C(C)[O-].[Cl-].[Co+3].c1c[nH]cn1.c1c[nH]cn1 [Compound 82],recovery of HSV-1 in tear film,RE strain HSV-1,reduced the recovery of HSV-1 in tear film
same,toxicity effects,"[1]; Experiment 1 (Table 1), 24 h PI, 0.001 mg/ml",-
same,toxicity effects,"[1]; Experiment 1 (Table 1), 24 h PI, 0.01 mg/ml",-
same,toxicity effects,"[1]; Experiment 1 (Table 1), 24 h PI, 0.1 mg/ml",-
same,toxicity effects,"[1]; Experiment 1 (Table 1), 24 h PI, 1 mg/ml",-
same,toxicity effects,"[1]; Experiment 1 (Table 1), 24 h PI, 10 mg/ml",-
same,toxicity effects,"[1]; Experiment 1 (Table 1), 48 h PI, 0.001 mg/ml",-
same,toxicity effects,"[1]; Experiment 1 (Table 1), 48 h PI, 0.01 mg/ml",-
same,toxicity effects,"[1]; Experiment 1 (Table 1), 48 h PI, 0.1 mg/ml",-
same,toxicity effects,"[1]; Experiment 1 (Table 1), 48 h PI, 1 mg/ml",-
same,toxicity compared with 23 and 76,"[1]; Experiment 1 comment, less than the observed toxicity of 23 and 76",one order of magnitud
same,virucidal efficacy (HSV-1 titer),"HSV-1 McKrae Strain [2]; Experiment 1 (Table 2), 24 h PI, 0.001 mg/ml",10^5 PFU/ml
same,virucidal efficacy (HSV-1 titer),"HSV-1 McKrae Strain [2]; Experiment 1 (Table 2), 24 h PI, 0.1 mg/ml",10^2 PFU/ml
same,virucidal efficacy (HSV-1 titer),"HSV-1 McKrae Strain [2]; Experiment 1 (Table 2), 24 h PI, 10 mg/ml",0 PFU/ml
same,virucidal efficacy (HSV-1 titer),"HSV-1 McKrae Strain [2]; Experiment 1 (Table 2), 24 h PI, .01 mg/ml",10^4 PFU/ml
same,virucidal efficacy (HSV-1 titer),"HSV-1 McKrae Strain [2]; Experiment 1 (Table 2), 48 h PI, 1 mg/ml",10^5 PFU/ml
same,virucidal efficacy (HSV-1 titer),"HSV-1 McKrae Strain [2]; Experiment 1 (Table 2), 48 h PI, 10 mg/ml",O/T
same,effective virucidal concentration IC50,HSV-1 McKrae Strain [2]; Experiment 1 (Table 3),100 µg/mL
same,effective virucidal concentration IC90,HSV-1 McKrae Strain [2]; Experiment 1 (Table 3),1000 µg/mL
same,virucidal efficacy (IC50) compared with 23 and 76,"HSV-1 McKrae Strain [2]; Experiment 1 comment, less than that observed for 23 and 76",one order of magnitude less
same,virucidal efficacy (HSV-1 titer),"HSV-1 McKrae Strain [2]; Experiment 2 (Table 5), 24 h PI, 0.001 mg/ml",10^4 PFU/ml
same,virucidal efficacy (HSV-1 titer),"HSV-1 McKrae Strain [2]; Experiment 2 (Table 5), 24 h PI, 0.1 mg/ml",10^2 PFU/ml
same,virucidal efficacy (HSV-1 titer),"HSV-1 McKrae Strain [2]; Experiment 2 (Table 5), 24 h PI, 10 mg/ml",0 PFU/ml
same,virucidal efficacy (HSV-1 titer),"HSV-1 McKrae Strain [2]; Experiment 2 (Table 5), 48 h PI, 1 mg/ml",10^5 PFU/ml
same,effective virucidal concentration IC50,HSV-1 McKrae Strain [2]; Experiment 2 (Table 6),100 µg/mL
same,effective virucidal concentration IC90,HSV-1 McKrae Strain [2]; Experiment 2 (Table 6),1000 µg/mL
CC(=NCCN=C(C)C(Cl)=C(C)[O-])C(Cl)=C(C)[O-].[Br-].[Co+3].c1c[nH]cn1.c1c[nH]cn1 [Compound 93],antiviral efficacy (HSV-1 titer),HSV-1 McKrae Strain [3]; 0.001 mg/ml,10^5 PFU/ml
same,antiviral efficacy (HSV-1 titer),HSV-1 McKrae Strain [3]; 0.5 mg/ml,10^2 PFU/ml
same,antiviral efficacy (HSV-1 titer),HSV-1 McKrae Strain [3]; 1 mg/ml,0 PFU/ml
same,effective virucidal concentration IC50,"HSV-1 McKrae Strain [3]; Experiment 7 (Table 19), HSV-1",500 µg/mL
same,toxicity effects,"[1]; Experiment 4 (Table 10), 24 h, 0.001 mg/ml",-
same,toxicity effects,"[1]; Experiment 4 (Table 10), 24 h, 0.01 mg/ml",-
same,toxicity effects,"[1]; Experiment 4 (Table 10), 24 h, 0.1 mg/ml",-
same,toxicity effects,"[1]; Experiment 4 (Table 10), 24 h, 0.5 mg/ml",-
same,toxicity effects,"[1]; Experiment 4 (Table 10), 24 h, 1 mg/ml",-
same,toxicity effects,"[1]; Experiment 4 (Table 10), 48 h, 0.001 mg/ml",-
same,toxicity effects,"[1]; Experiment 4 (Table 10), 48 h, 0.01 mg/ml",-
same,toxicity effects,"[1]; Experiment 4 (Table 10), 48 h, 0.5 mg/ml",-
same,toxicity effects,"[1]; Experiment 4 (Table 10), 48 h, 1 mg/ml",-
same,toxicity effects,"[1]; Experiment 6 (Table 15), 48 h, 0.001 mg/ml",-
same,toxicity effects,"[1]; Experiment 6 (Table 15), 48 h, 0.01 mg/ml",-
same,toxicity to HFF monolayers (comment),"[1]; Experiment 6 comment, more pronounced at 0.5 and 0.1 mg/ml, cell rounding, detaching, granularity",toxicity observed
same,virucidal efficacy (HSV-1 titer),"HSV-1 McKrae Strain [2]; Experiment 4 (Table 9), 24 h PI, Run 1, 0.001 mg/ml",10^5 PFU/ml
same,virucidal efficacy (HSV-1 titer),"HSV-1 McKrae Strain [2]; Experiment 4 (Table 9), 24 h PI, Run 1, 0.5 mg/ml",10^2 PFU/ml
same,virucidal efficacy (HSV-1 titer),"HSV-1 McKrae Strain [2]; Experiment 4 (Table 9), 24 h PI, Run 1, 1 mg/ml",0 PFU/ml
same,virucidal efficacy (HSV-1 titer),"HSV-1 McKrae Strain [2]; Experiment 4 (Table 9), 24 h PI, Run 1, 5 mg/ml",0 PFU/ml
same,virucidal efficacy (HSV-1 titer),"HSV-1 McKrae Strain [2]; Experiment 4 (Table 9), 24 h PI, Run 2, 0.01 mg/ml",10^2 PFU/ml
same,virucidal efficacy (HSV-1 titer),"HSV-1 McKrae Strain [2]; Experiment 4 (Table 9), 24 h PI, Run 2, 0.1 mg/ml",0 PFU/ml
same,virucidal efficacy (HSV-1 titer),"HSV-1 McKrae Strain [2]; Experiment 4 (Table 9), 24 h PI, Run 2, 0.5 mg/ml",0 PFU/ml
same,virucidal efficacy (HSV-1 titer),"HSV-1 McKrae Strain [2]; Experiment 4 (Table 9), 24 h PI, Run 2, 1 mg/ml",0 PFU/ml
same,virucidal efficacy (HSV-1 titer),"HSV-1 McKrae Strain [2]; Experiment 4 (Table 9), 24 h PI, Run 2, 5 mg/ml",0 PFU/ml
same,effective virucidal concentration IC50,HSV-1 McKrae Strain [2]; Experiment 4 (Table 11),500 µg/mL
same,effective virucidal concentration IC90,HSV-1 McKrae Strain [2]; Experiment 4 (Table 11),> 1000 µg/mL
same,virucidal efficacy (HSV-1 titer),"HSV-1 McKrae Strain [2]; Experiment 6 (Table 16), 24 h PI, 0.1 mg/ml",10^2 PFU/ml
same,virucidal efficacy (HSV-1 titer),"HSV-1 McKrae Strain [2]; Experiment 6 (Table 16), 24 h PI, 0.5 mg/ml",0 PFU/ml
same,virucidal efficacy (HSV-1 titer),"HSV-1 McKrae Strain [2]; Experiment 6 (Table 16), 24 h PI, 1 mg/ml",0 PFU/ml
same,effective virucidal concentration IC50,HSV-1 McKrae Strain [2]; Experiment 6 (Table 17),100 µg/mL
same,efficacy in virucidal assay (comment),"HSV-1 McKrae Strain [2]; Experiment 6 comment, reduction in toxicity resulted in it",reduction in efficacy
same,"toxicity IC50, cell proliferation",HFF cells,25.0 MCG/ML

# Reference: patent publication US5756491A, “Antiviral cobalt-organic compounds” (priority 1991, dated 1998)
